In ChEMBL document CHEMBL1201862, “PubChem BioAssay data set” (2004):
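A five-concentration, 48-hour dose response in 96-well plates underlies each endpoint, interpolated linearly between surrounding concentrations. GI50: concentration for 50% inhibition of growth.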 The source made the active and inactive calls. No stated cut-off is given here; in the data, active = GI50 up to about 1.1 µM and inactive = higher.

Key:
Test in all cases: NCI tumour cell line growth inhibition, 48 h
RXF 631 = system: RXF 631
DMS-114 = system: DMS-114
DLD-1 = system: DLD-1
XF498 = system: XF498
DMS-273 = system: DMS-273
M19-MEL = system: M19-MEL
KM-20L2 = system: KM-20L2
SNB-78 = system: SNB-78
HOP-18 = system: HOP-18

| SMILES | GI50 (RXF 631) | GI50 (DMS-114) | GI50 (DLD-1) | GI50 (XF498) | GI50 (DMS-273) | GI50 (M19-MEL) | GI50 (KM-20L2) | GI50 (SNB-78) | GI50 (HOP-18) |
| --- | --- | --- | --- | --- | --- | --- | --- | --- | --- |
| CNS(=O)(=O)NN(C)S(=O)(=O)c1ccc(Br)cc1 | > 100 µM (inactive) | > 100 µM (inactive) | > 10 µM (inactive) | > 100 µM (inactive) | > 100 µM (inactive) | > 100 µM (inactive) | > 100 µM (inactive) | – | – |
| COC(=O)c1c(-c2ccccc2)sc(-c2cccc3ccccc23)c1C(=O)OC | – | – | 18 µM (inactive) | – | > 100 µM (inactive) | > 100 µM (inactive) | > 100 µM (inactive) | > 100 µM (inactive) | > 100 µM (inactive) |
| Cc1c(/C=N/NC(=O)c2cc(Br)cc(Br)c2O)c(=O)n(-c2ccccc2)n1C | – | 38.5 µM (inactive) | 67.1 µM (inactive) | 17.6 µM (inactive) | 5.25 µM (inactive) | > 100 µM (inactive) | 58.3 µM (inactive) | > 100 µM (inactive) | – |
| COC1=CC(=O)C2C(C1=O)[C@@H]1c3ccccc3OC(C)(C)[C@H]21 (some centres undefined) | – | 20.7 µM (inactive) | 19.2 µM (inactive) | 18.1 µM (inactive) | 22.9 µM (inactive) | 20.2 µM (inactive) | 27.1 µM (inactive) | 18.8 µM (inactive) | – |
| O=C(CC1C(=O)Nc2ccccc2S1(=O)=O)Nc1cccc(Cl)c1 (centres undefined) | 19.9 µM (inactive) | 16.1 µM (inactive) | 17.5 µM (inactive) | 21.3 µM (inactive) | 14.5 µM (inactive) | 19.1 µM (inactive) | 21.1 µM (inactive) | 59.7 µM (inactive) | – |
| NC(CCc1ncc(-c2ccccc2)s1)C(=O)O (centres undefined) | > 100 µM (inactive) | > 100 µM (inactive) | > 100 µM (inactive) | – | > 100 µM (inactive) | – | – | > 100 µM (inactive) | > 100 µM (inactive) |
| CCC1NCC(=O)c2c1[nH]c1ccccc21 (centres undefined) | – | > 100 µM (inactive) | > 100 µM (inactive) | – | > 100 µM (inactive) | > 100 µM (inactive) | > 100 µM (inactive) | > 100 µM (inactive) | > 100 µM (inactive) |
| O=C1OC2C(O)COC2(O)C1(O)C(C[N+](=O)[O-])c1ccc(Cl)cc1 (centres undefined) | – | 2.76 µM (inactive) | 1.81 µM (inactive) | – | 3.3 µM (inactive) | 2.5 µM (inactive) | 2.51 µM (inactive) | 13.8 µM (inactive) | 9.02 µM (inactive) |
| CCOC(=O)C1=C(O)C(=O)c2cc(C)ccc2C1=O | – | > 100 µM (inactive) | > 100 µM (inactive) | > 100 µM (inactive) | > 100 µM (inactive) | 16.6 µM (inactive) | > 100 µM (inactive) | > 100 µM (inactive) | 45.5 µM (inactive) |
| Cc1c(C(=O)CSc2nc3cc([N+](=O)[O-])ccc3[nH]2)c(=O)n(-c2ccccc2)n1C | – | > 100 µM (inactive) | > 100 µM (inactive) | > 100 µM (inactive) | > 100 µM (inactive) | > 100 µM (inactive) | – | – | – |
| CCOP(=O)(OCC)/C(C#N)=C\c1ccc(OC(C)=O)cc1 | – | > 100 µM (inactive) | > 100 µM (inactive) | > 100 µM (inactive) | – | > 100 µM (inactive) | > 100 µM (inactive) | > 100 µM (inactive) | > 100 µM (inactive) |
| Cc1cc2c(=O)c3ccc(Cl)cc3[nH]c2c(C(N)=O)c1C | > 100 µM (inactive) | > 100 µM (inactive) | > 100 µM (inactive) | > 100 µM (inactive) | > 100 µM (inactive) | > 100 µM (inactive) | > 100 µM (inactive) | > 100 µM (inactive) | – |
| C[N+](C)(C)CC1CCCC1=O (centres undefined) | 14.2 µM (inactive) | 3.24 µM (inactive) | 1.01 µM (active) | 1.87 µM (inactive) | 6.87 µM (inactive) | 2.22 µM (inactive) | 2.61 µM (inactive) | 3.24 µM (inactive) | 1.87 µM (inactive) |
| CC1OC(OC2CCCc3c(O)c4c(c(O)c32)C(=O)c2ccccc2C4=O)CC(N)C1O (centres undefined) | 1.5 µM (inactive) | 1.69 µM (inactive) | 1.33 µM (inactive) | 1.93 µM (inactive) | – | 1.78 µM (inactive) | 2.01 µM (inactive) | 1.89 µM (inactive) | – |
| CCCN1CN(C(C(=O)N[C@@H]2C(=O)N3C2SC(C)(C)C3C(=O)O)c2ccccc2)CSC1=S (some centres undefined) | – | 54 µM (inactive) | 84.1 µM (inactive) | > 100 µM (inactive) | 48.8 µM (inactive) | > 100 µM (inactive) | > 100 µM (inactive) | > 100 µM (inactive) | > 100 µM (inactive) |
| NC(CCSC(F)F)C(=O)O (centres undefined) | – | 65.3 µM (inactive) | > 100 µM (inactive) | > 100 µM (inactive) | > 100 µM (inactive) | > 100 µM (inactive) | > 100 µM (inactive) | > 100 µM (inactive) | – |
| CCOC(=O)N[C@@H]1C(CC(=O)OC)O[C@H]2OC(C)(C)O[C@H]21 (some centres undefined) | > 100 µM (inactive) | > 100 µM (inactive) | > 100 µM (inactive) | > 100 µM (inactive) | > 100 µM (inactive) | > 100 µM (inactive) | > 100 µM (inactive) | > 100 µM (inactive) | > 100 µM (inactive) |
| COc1ccc2cc3[n+](cc2c1O)CCc1cc2c(cc1-3)OCO2 [BERBERRUBINE CHLORIDE] | – | – | > 100 µM (inactive) | > 100 µM (inactive) | – | > 100 µM (inactive) | > 100 µM (inactive) | > 100 µM (inactive) | > 100 µM (inactive) |
